From patent publication US20260365637A1, “DUAL EZH2-HSP90 INHIBITORS” (TAIPEI MEDICAL UNIVERSITY, priority 2023, published 2026)

Assays:
[1] = target: HSP90a (Homo sapiens, UniProt P07900); experiment: In vitro HSP90 inhibition assay (Reaction Biology Corporation); type: biochemical
Method: The HSP90 inhibitory activity of the synthesized adduct was assessed by Reaction Biology Corporation, Malvern, PA (http://www.reactionbiology.com).
An in-vitro experiment was performed to assess the inhibitory effect of the synthesized adducts on the heat shock protein 90 (HSP90).

[2] = test system: Pt3R cells; experiment: Itraq-based proteomics analysis of Pt3R cells; type: cell-based, human; parameters: M059/DMSO, P4HA2 (O15460) / M059/DMSO, ATP6V1E1 (P36543) / M059/DMSO, HSPH1 (Q92598) / M059/DMSO, ACTB (P60709) / M059/DMSO, HSPB1 (P04792) / M059/DMSO, S100A10 (P60903) / M059/DMSO, LRPAP1 (P30533) / M059/DMSO, GIPC1 (O14908) / M059/DMSO, HSPE1 (P61604) / M059/DMSO, OLA1 (Q9NTK5) / M059/DMSO, EEF1B2 (P24534) / M059/DMSO, PSMD3 (O43242) / M059/DMSO, ZYX (Q15942) / M059/DMSO, HK1 (P19367) / M059/DMSO, ARF3 (P61204) / M059/DMSO, TWF1 (Q12792) / M059/DMSO, HSPA8 (P11142) / M059/DMSO, CTNNB1 (P35222) / M059/DMSO, EHD1 (Q9H4M9) / M059/DMSO, HSPA4 (P34932) / M059/DMSO, PSMD14 (O00487): dose or concentration left out as unconfirmed
Method: Pt3 GBM cells were isolated from a GBM patient as described in our previous study. Temozolomide (TMZ)-resistant phenotype of Pt3R cells had been validated previously. Pt3 cells were cultured in DMEM-supplemented with 10% fetal bovine serum, 100 μg/ml streptomycin and 100 μg/ml penicillin G. Pt3R cells were cultured in the presence of 100 μM of TMZ (MilliporeSigma Corporate, St. Louis, MO, USA).
RNA was isolated using the RNA extracting kit (Zymo Research, Irvine, CA, USA), and subjected to RNA-seq serviced by BIOTOOLS Co., Ltd (New Taipei City, Taiwan). Cell pellets were collected and subjected to proteomic analysis serviced by BIOTOOLS Co., Ltd. The comparison in gene expression between Pt3 and Pt3R was performed using RNA seq, and has been described previously.
Having identified the desired chemical probe 7, we assessed global protein expression using Itraq-based proteomics analysis to estimate whether 7 suppresses HSP90 (Pt3R cell lines). […] This observation is aligned with the results attained with geldanamycin treatment (a well-known HSP90 inhibitor) (Cheung, C. H. A.; Chen, H.-H.; Cheng, L.-T.; Lyu, K. W.; Kanwar, J. R.; Chang, J.-Y. TargetingHsp90 with small molecule inhibitors induces the over-expression of the anti-apoptotic molecule, survivin, in human A549, HONE-1 and HT-29 cancer cells. Mol. Cancer 2010, 9 (1), 1-11; Kuroyanagi, G.; Tokuda, H.; Fujita, K.; Kawabata, T.; Sakai, G.; Kim, W.; Hioki, T.; Tachi, J; Matsushima-Nishiwaki, R.; Otsuka, T. Upregulation of TGF-β-induced HSP27 by HSP90 inhibitors in osteoblasts. BMC Musculoskelet. Disord. 2022, 23 (1), 495) and confirms the HSP90-suppressive activity of compound 7 in GBM cells.

[3] = test system: Pt3R cells; experiment: Proliferation of Pt3R cells after treatment (FIG. 4A); type: cell-based, human; conditions: 2 μM, 48 h
[4] = test system: Pt3R cells; experiment: Cell cycle analysis (propidium iodide, flow cytometry); type: cell-based, human; conditions: 24 h, FIG. 5E
[5] = test system: Pt3R cells; experiment: Western blotting in Pt3R cells; type: cell-based, human
Source text: The details of the procedure are described in our previous study. Primary antibodies, anti-CENPA, anti-CENPE, anti-CENPF and anti-CENPI antibodies, were purchased from abcam (Cambridge, UK); anti-CDK1 and anti-cyclin B1 antibodies were purchased from Santa Cruz Biotechnology, Inc. (Dallas, TX, USA); anti-EZH2 and anti-H3K27^me3 antibodies were purchased from GeneTex International Corporation (Hsinchu, Taiwan).
Furthermore, the impact of compound 7 treatment on centromere proteins (CENPs) was assessed. As such, CENPs are the main constituent proteins of the kinetochore, which are essential for cell division. CENP expression is elevated in GBM tissues and correlated with unfavourable overall survival in glioma patients.
(§1) Treatment concentration of MPT1A059 was indicated.

[6] = test system: mitochondrial ROS; experiment: MitoSOX assay of mitochondrial ROS; type: cell-based
Method: (§2) Dihydrorhodamine 123 (DHR; Thermo Fisher Scientific, Waltham, MA, USA) was used to label cellular ROS detected by flow cytometry, and the MitoSOX reagent (Thermo Fisher Scientific) was used to label mitochondrial ROS [55].
Thus, the ability of compound 7 to disturb redox homeostasis in TMZ-resistant cells and attain amplified therapeutic efficacy for GBM was evaluated. In both Pt3 and Pt3R cells, treatment with compound 7 for 48 h increased the ROS level (FIG. 7A). […] Moreover, it was also observed that compound 7 increased mitochondria-derived ROS.
as §1

[7] = test system: Pt3R cells; experiment: Cellular ROS assay (DHR, flow cytometry) in Pt3R cells; type: cell-based, human; conditions: 48 h, FIG. 7A
Source text: as §2, §1

CCN(c1cc(-c2cccc(N(C)C(=O)c3cc(C(C)C)c(O)cc3O)c2)cc(C(=O)NCc2c(C)cc(C)[nH]c2=O)c1C)C1CCOCC1 [Compound 7, 3′-(2,4-dihydroxy-5-isopropyl-N-methylbenzamido)-N-((4,6-dimethyl-2-oxo-1,2-dihydropyridin-3-yl)methyl)-5-(ethyl(tetrahydro-2H-pyran-4-yl)amino)-4-methyl-[1,1′-biphenyl]-3-carboxamide] was tested, and the “HSP90 inhibitory potential in words” value [1] was “conferred HSP90 inhibitory potential”, the IC50 [1] was 60.1 nM and the “HSP family proteins (HSPA1A, HSPA8, HSP90AA1, HSPB1, HSPH1 and HSPA4)” value ([2]; Pt3R cells) was “significantly increased”. The “M059/DMSO, PA2G4 (Q9UQ80)” value ([2]; decreased) was 0.628, the “M059/DMSO, ACTB (P60709)” value ([2]; increased) was 1.657 and the “M059/DMSO, ARF3 (P61204)” value ([2]; increased) was 1.944. For the same compound, the “M059/DMSO, ATP5IF1 (Q9UII2)” value ([2]; increased) was 1.646, the “M059/DMSO, ATP6V1E1 (P36543)” value ([2]; increased) was 1.599 and the “M059/DMSO, CTNNB1 (P35222)” value ([2]; increased) was 1.550. The “M059/DMSO, EEF1B2 (P24534)” value ([2]; increased) was 1.792, the “M059/DMSO, EHD1 (Q9H4M9)” value ([2]; increased) was 1.555 and the “M059/DMSO, GIPC1 (O14908)” value ([2]; increased) was 1.699. The “M059/DMSO, HK1 (P19367)” value ([2]; increased) was 1.921, the “M059/DMSO, HSP90AA1 (P07900)” value ([2]; increased) was 1.958 and the “M059/DMSO, HSPA4 (P34932)” value ([2]; increased) was 1.561. For the same compound, the “M059/DMSO, HSPA8 (P11142)” value ([2]; increased) was 2.096, the “M059/DMSO, HSPB1 (P04792)” value ([2]; increased) was 1.661 and the “M059/DMSO, HSPE1 (P61604)” value ([2]; increased) was 1.710. For the same compound, the “M059/DMSO, HSPH1 (Q92598)” value ([2]; increased) was 1.642, the “M059/DMSO, LRPAP1 (P30533)” value ([2]; increased) was 1.667 and the “M059/DMSO, OLA1 (Q9NTK5)” value ([2]; increased) was 1.745. The “M059/DMSO, P4HA2 (O15460)” value ([2]; increased) was 1.588, the “M059/DMSO, PSMD3 (O43242)” value ([2]; increased) was 1.801 and the “M059/DMSO, PSMD14 (O00487)” value ([2]; increased) was 1.579. For the same compound, the “M059/DMSO, S100A10 (P60903)” value ([2]; increased) was 1.664, the “M059/DMSO, TWF1 (Q12792)” value ([2]; increased) was 1.995 and the “M059/DMSO, ZYX (Q15942)” value ([2]; increased) was 1.903. For the same compound, the cell proliferation [3] was “significantly inhibited cell proliferation”, the cell cycle [4] was “induced cell cycle arrest at the M phase” and the “CDK1 and cyclin B1 expression” value ([5]; FIG. 5D) was “downregulated”. The “EZH2 expression and EZH2-modulated H3K27 trimethylation” value ([5]; FIG. 7B) was “inhibited”, the “catalase, superoxide dismutase (SOD) 1, glutathione reductase and glutathione peroxidase (GPX) 1 proteins” value ([5]; FIG. 7B) was “decreased” and the CENPs protein expression ([5]; Pt3R cells, FIG. 5D) was “decreased”. The “mitochondria-derived ROS” value [6] was “increased”, the “MitoSOX red signal representing ROS produced from mitochondria” value ([6]; FIG. 7C) was “remarkably enhanced” and the ROS level [7] was “increased”.
